Measured values from patent US9072698B2, “Method for screening anti-cancer compounds inhibiting function of TM4SF5 and anti-cancer composition containing chalcone compounds” (Seoul National University Industry Foundation, priority 2006, dated 2015).

Columns and labels:
[1] = test system: p27^kip1, pS^10p27^kip1, pY^577FAK and α-SMA; test: Western blotting for TM4SF5-mediated protein expression (FIG. 46); format: cell-based, human
Method: Cell lysates, obtained under various experimental conditions, were prepared using RIPA buffer after cells under various conditions were washed with PBS. In special cases, employed cells were transfected with given expression vectors or infected with an adenovirus expressing an shRNA to TM4SF5 or a siRNA to p27^kip1. In addition, cells treated with 10 μM of cycloheximide for a given period of time were used. For such cell lysates, protein was quantified, and the same amounts of protein were used. Western blotting was performed using antibodies to phospho-Y^577FAK, phospho-Y^416Src, c-Src, RhoA, p120^ctn, β-catenin, pS^10p27^kip1, FAK, E-cadherin, ZO1, Rac1, p190RhoGAP, p27^kip1, GRAF, hKIS, desmoplakin, α-tubulin, α-catenin, and α-smooth muscle actin (α-SMA).

[2] = test system: cells not expressing TM4SF5; test: Growth/proliferation of cells not expressing TM4SF5 (FIG. 51); format: cell-based
SNU449Tp cells = test: Invasion into Matrigel, Transwell chamber (FIG. 67); format: cell-based, human; details: cultured for 24 hrs
Method: The invasiveness of SNU449Tp cells was also analyzed using Boyden Transwell chamber 24 well plates, as mentioned in Example 7-(1). Matrigel was added to the insert of the plates, and was allowed to solidify at 37° C. Cells were cultured as described above. After 24 hrs, cells on the upper surface of the membrane of the insert chamber were completely removed by wiping with a cotton swab. As a result, after […], cells that had invaded the lower side of the membrane were stained.
According to the same method described above, cells were seeded in the Transwell chamber, coated with a thick layer of Matrigel, and cultured for 24 hrs. Cells that invaded the Matrigel were counted, and the results are shown as a graph.

Compound: Cc1ccc(S(=O)(=O)Nc2ccc(C(=O)/C=C/c3ccc(O)cc3)cc2)cc1 [Compound 1, 4′-(p-toluenesulfonylamino)-4-hydroxychalcone]
- expression levels of p27^kip1, pS^10p27^kip1, pY^577FAK and α-SMA [1]: effectively reduce TM4SF5-mediated high expression levels of p27^kip1, pS^10p27^kip1, pY^577FAK and α-SMA
- growth or proliferation of cells not expressing TM4SF5 [2]: did not affect cells not expressing TM4SF5
- invasion into Matrigel (SNU449Tp cells): effectively inhibit invasion into Matrigel
